ChEMBL document CHEMBL5649169 (ChemMedChem, 2018)

How the values were obtained:
[1] = target: Ephrin type-B receptor 2 (Homo sapiens) (UniProt P29323)
[2] = target: Iron-sulfur clusters transporter ABCB7, mitochondrial (Homo sapiens) (UniProt O75027)
[3] = target: Alpha-actinin-4 (Homo sapiens) (UniProt O43707)
[4] = target: Bifunctional purine biosynthesis protein ATIC (Homo sapiens) (UniProt P31939)
[5] = target: ATP synthase F(1) complex subunit beta, mitochondrial (Homo sapiens) (UniProt P06576)
[6] = target: Ataxin-2-like protein (Homo sapiens) (UniProt Q8WWM7)
[7] = target: Cyclin-dependent kinase 7 (Homo sapiens) (UniProt P50613)
Chain of Cyclin-dependent kinase 7 (Homo sapiens) (P50613 whole entry, canonical isoform): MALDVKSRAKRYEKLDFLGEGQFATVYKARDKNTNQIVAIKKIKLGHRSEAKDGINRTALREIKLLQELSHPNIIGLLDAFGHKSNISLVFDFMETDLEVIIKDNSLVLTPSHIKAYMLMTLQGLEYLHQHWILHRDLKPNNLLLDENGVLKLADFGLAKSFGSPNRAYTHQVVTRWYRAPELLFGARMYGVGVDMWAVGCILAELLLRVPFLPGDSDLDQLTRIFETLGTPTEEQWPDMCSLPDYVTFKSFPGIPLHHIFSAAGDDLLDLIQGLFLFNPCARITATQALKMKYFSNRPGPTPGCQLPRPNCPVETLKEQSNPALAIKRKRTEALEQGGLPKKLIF

[8] = target: Carnitine O-palmitoyltransferase 1, liver isoform (Homo sapiens) (UniProt P50416)
Chain of Carnitine O-palmitoyltransferase 1, liver isoform (Homo sapiens) (P50416 whole entry, canonical isoform): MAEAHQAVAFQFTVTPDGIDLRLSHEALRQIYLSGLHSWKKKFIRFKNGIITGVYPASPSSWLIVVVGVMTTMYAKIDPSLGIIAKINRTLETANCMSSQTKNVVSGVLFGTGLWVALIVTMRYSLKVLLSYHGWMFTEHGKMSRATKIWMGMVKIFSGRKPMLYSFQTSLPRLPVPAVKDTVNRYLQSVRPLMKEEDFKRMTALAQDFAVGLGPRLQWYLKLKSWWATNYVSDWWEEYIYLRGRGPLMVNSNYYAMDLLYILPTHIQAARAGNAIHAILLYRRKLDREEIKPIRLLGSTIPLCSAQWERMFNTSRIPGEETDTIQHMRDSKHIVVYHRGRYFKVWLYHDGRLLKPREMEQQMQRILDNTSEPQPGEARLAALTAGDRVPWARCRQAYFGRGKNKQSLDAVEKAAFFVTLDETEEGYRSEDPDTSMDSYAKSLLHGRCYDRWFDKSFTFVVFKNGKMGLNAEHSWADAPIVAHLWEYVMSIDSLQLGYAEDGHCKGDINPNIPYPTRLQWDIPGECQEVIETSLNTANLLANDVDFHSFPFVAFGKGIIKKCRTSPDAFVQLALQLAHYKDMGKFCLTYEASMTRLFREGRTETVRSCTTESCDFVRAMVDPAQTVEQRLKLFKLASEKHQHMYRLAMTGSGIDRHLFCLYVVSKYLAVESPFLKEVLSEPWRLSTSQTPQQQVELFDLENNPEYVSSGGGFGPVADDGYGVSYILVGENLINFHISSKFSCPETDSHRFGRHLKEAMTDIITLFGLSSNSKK

[9] = target: Eukaryotic translation initiation factor 6 (Homo sapiens) (UniProt P56537)
[10] = target: ELAV-like protein 1 (Homo sapiens) (UniProt Q15717)
Chain of ELAV-like protein 1 (Homo sapiens) (Q15717 whole entry): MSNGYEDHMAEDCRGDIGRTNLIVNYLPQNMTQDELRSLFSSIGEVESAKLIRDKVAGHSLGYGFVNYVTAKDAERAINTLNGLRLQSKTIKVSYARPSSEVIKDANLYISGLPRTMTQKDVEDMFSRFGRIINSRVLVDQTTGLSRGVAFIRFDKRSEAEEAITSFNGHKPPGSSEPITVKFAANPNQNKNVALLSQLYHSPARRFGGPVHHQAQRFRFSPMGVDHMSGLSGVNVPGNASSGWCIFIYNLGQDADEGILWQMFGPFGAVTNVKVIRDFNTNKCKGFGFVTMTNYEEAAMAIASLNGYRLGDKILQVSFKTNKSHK

[11] = target: Extended synaptotagmin-1 (Homo sapiens) (UniProt Q9BSJ8)
[12] = target: Extended synaptotagmin-2 (Homo sapiens) (UniProt A0FGR8)
[13] = target: Exocyst complex component 1 (Homo sapiens) (UniProt Q9NV70)
[14] = target: Ferrochelatase, mitochondrial (Homo sapiens) (UniProt P22830)
[15] = target: Tyrosine-protein kinase Fer (Homo sapiens) (UniProt P16591)
[16] = target: RNA-binding protein FXR1 (Homo sapiens) (UniProt P51114)
[17] = target: Trifunctional enzyme subunit alpha, mitochondrial (Homo sapiens) (UniProt P40939)
[18] = species: Homo sapiens
[19] = target: Heterogeneous nuclear ribonucleoprotein H (Homo sapiens) (UniProt P31943)
[20] = target: Heterogeneous nuclear ribonucleoprotein M (Homo sapiens) (UniProt P52272)
[21] = target: Importin-5 (Homo sapiens) (UniProt O00410)
[22] = target: Integrin beta-4 (Homo sapiens) (UniProt P16144)
Chain of Integrin beta-4 (Homo sapiens) (P16144 whole entry): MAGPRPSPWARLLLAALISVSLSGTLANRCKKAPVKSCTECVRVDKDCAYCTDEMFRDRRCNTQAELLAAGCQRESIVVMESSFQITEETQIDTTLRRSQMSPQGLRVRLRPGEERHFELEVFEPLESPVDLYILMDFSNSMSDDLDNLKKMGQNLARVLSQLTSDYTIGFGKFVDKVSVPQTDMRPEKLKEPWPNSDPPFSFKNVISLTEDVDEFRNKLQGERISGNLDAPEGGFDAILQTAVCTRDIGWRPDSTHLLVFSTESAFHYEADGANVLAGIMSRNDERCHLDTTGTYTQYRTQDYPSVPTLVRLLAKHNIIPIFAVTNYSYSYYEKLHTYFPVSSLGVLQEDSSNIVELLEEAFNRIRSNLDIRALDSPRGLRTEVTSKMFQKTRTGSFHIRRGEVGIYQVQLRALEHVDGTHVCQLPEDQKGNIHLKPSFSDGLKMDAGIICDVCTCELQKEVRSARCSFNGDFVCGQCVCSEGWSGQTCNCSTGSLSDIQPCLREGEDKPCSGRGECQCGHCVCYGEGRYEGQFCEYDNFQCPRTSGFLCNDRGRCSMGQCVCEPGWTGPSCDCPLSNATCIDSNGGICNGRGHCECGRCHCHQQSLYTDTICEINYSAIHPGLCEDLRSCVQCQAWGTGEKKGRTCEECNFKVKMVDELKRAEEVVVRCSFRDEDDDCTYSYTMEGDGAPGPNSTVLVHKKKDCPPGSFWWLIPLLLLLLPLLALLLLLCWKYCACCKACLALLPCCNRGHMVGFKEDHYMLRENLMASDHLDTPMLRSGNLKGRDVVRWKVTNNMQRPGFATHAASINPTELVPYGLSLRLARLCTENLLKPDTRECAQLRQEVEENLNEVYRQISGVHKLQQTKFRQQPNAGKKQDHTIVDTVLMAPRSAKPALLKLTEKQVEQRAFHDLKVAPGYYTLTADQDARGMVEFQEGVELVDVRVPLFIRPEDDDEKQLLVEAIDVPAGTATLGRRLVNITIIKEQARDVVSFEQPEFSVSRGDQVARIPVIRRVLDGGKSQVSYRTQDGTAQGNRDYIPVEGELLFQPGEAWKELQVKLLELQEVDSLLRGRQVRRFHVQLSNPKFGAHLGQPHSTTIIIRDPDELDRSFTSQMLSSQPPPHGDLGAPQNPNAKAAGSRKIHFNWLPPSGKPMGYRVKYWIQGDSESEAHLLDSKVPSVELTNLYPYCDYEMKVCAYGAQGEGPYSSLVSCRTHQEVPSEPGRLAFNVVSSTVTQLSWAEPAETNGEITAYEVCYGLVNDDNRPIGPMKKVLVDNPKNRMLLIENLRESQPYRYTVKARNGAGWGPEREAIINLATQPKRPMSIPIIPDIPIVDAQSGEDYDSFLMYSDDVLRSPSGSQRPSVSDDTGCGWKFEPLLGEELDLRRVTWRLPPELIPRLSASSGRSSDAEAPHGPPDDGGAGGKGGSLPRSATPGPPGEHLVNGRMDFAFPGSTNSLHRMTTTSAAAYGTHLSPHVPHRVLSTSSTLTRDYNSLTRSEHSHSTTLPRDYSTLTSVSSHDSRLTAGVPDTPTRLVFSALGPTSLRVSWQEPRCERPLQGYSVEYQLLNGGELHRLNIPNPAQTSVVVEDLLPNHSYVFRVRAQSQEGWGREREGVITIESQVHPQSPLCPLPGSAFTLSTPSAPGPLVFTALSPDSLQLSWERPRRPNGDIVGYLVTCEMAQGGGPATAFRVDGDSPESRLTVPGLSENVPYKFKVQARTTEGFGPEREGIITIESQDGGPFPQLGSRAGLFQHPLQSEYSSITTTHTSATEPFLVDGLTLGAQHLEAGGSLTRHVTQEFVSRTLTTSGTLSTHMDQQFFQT

[23] = target: Lysine--tRNA ligase (Homo sapiens) (UniProt Q15046)
[24] = target: Kinetochore-associated protein 1 (Homo sapiens) (UniProt P50748)
[25] = target: Mitogen-activated protein kinase kinase kinase kinase 1 (Homo sapiens) (UniProt Q92918)
[26] = target: Malate dehydrogenase, mitochondrial (Homo sapiens) (UniProt P40926)
[27] = target: Transport and Golgi organization protein 1 homolog (Homo sapiens) (UniProt Q5JRA6)
[28] = target: Nucleolar complex protein 2 homolog (Homo sapiens) (UniProt Q9Y3T9)
[29] = target: Nuclear pore complex protein Nup93 (Homo sapiens) (UniProt Q8N1F7)
[30] = target: Nuclear transport factor 2 (Homo sapiens) (UniProt P61970)
Chain of Nuclear transport factor 2 (Homo sapiens) (P61970 whole entry): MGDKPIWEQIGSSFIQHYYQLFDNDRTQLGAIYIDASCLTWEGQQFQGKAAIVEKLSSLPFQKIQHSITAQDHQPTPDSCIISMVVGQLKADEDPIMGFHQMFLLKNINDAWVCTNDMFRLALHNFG

[31] = target: 2-oxoglutarate dehydrogenase complex component E1 (Homo sapiens) (UniProt Q02218)
[32] = target: Oxysterol-binding protein-related protein 8 (Homo sapiens) (UniProt Q9BZF1)
[33] = target: Serine/threonine-protein phosphatase PGAM5, mitochondrial (Homo sapiens) (UniProt Q96HS1)
[34] = target: Prohibitin 1 (Homo sapiens) (UniProt P35232)
[35] = target: Serine/threonine-protein kinase pim-1 (Homo sapiens) (UniProt P11309)
[36] = target: Serine/threonine-protein kinase PLK4 (Homo sapiens) (UniProt O00444)
[37] = target: Mitochondrial-processing peptidase subunit beta (Homo sapiens) (UniProt O75439)
[38] = target: 26S proteasome regulatory subunit 6A (Homo sapiens) (UniProt P17980)
Chain of 26S proteasome regulatory subunit 6A (Homo sapiens) (P17980 whole entry): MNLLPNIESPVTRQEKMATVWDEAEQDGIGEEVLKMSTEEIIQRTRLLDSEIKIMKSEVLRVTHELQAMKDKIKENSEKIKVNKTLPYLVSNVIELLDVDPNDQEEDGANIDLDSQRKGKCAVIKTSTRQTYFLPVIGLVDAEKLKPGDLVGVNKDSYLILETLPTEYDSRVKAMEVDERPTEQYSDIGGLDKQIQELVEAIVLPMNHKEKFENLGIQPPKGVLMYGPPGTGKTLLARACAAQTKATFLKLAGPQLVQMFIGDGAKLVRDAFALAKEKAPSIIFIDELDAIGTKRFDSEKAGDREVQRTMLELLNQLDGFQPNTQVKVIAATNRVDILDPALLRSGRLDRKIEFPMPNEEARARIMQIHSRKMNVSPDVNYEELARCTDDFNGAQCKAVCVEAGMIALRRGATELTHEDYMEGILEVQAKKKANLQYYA

[39] = target: Small ribosomal subunit protein eS21 (Homo sapiens) (UniProt P63220)
[40] = target: Ribonucleoside-diphosphate reductase large subunit (Homo sapiens) (UniProt P23921)
[41] = target: Protein transport protein Sec24C (Homo sapiens) (UniProt P53992)
Chain of Protein transport protein Sec24C (Homo sapiens) (P53992 whole entry): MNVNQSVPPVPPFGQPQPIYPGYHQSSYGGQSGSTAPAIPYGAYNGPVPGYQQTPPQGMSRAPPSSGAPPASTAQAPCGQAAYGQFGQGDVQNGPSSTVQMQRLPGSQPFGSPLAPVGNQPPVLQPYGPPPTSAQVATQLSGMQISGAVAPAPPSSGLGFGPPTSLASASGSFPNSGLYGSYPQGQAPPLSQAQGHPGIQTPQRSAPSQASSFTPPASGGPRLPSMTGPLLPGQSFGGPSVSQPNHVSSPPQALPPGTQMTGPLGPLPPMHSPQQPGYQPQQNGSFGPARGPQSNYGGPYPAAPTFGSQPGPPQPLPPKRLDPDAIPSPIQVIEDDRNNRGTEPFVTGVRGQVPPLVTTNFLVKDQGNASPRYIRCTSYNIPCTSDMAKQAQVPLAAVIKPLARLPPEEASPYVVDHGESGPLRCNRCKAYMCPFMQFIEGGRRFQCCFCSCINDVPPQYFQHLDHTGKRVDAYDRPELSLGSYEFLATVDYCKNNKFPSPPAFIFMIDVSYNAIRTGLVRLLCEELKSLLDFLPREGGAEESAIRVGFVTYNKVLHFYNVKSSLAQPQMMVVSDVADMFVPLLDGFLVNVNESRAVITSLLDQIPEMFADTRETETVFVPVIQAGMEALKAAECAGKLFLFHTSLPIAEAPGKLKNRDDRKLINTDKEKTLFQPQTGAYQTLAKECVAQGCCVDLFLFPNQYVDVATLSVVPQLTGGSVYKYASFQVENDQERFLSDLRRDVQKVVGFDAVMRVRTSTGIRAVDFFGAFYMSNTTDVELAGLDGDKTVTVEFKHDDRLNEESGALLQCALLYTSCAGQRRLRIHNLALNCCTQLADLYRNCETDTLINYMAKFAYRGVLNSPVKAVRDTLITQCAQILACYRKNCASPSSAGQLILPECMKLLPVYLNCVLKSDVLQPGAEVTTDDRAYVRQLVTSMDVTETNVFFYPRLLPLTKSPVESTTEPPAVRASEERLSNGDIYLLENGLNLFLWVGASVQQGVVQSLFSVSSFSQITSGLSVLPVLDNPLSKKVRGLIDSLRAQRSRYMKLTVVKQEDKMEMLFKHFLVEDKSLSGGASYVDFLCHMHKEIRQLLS

[42] = target: Structural maintenance of chromosomes protein 2 (Homo sapiens) (UniProt O95347)
[43] = target: Signal recognition particle subunit SRP68 (Homo sapiens) (UniProt Q9UHB9)
[44] = target: Single-stranded DNA-binding protein, mitochondrial (Homo sapiens) (UniProt Q04837)
[45] = target: Synaptogyrin-2 (Homo sapiens) (UniProt O43760)
[46] = target: Neurosecretory protein VGF (Homo sapiens) (UniProt O15240)
[47] = target: WD repeat-containing protein 5 (Homo sapiens) (UniProt P61964)
Further: assay method not described here.

Structure (SMILES): Cc1ccc(C(=O)Nc2cccc(C(F)(F)F)c2)cc1Nc1nc(-c2cccnc2)nc2c1cnn2C
- ED50 [1]: 2.94 µM
- ED50 [2]: 0.0622 µM
- ED50 [3]: 4.01 µM
- ED50 [4]: 3.39 µM
- ED50 [5]: 0.882 µM
- ED50 [6]: 3.43 µM
- ED50 [7]: 0.0338 µM
- ED50 [8]: 0.0014 µM
- ED50 [9]: 3 µM
- ED50 [10]: 0.0107 µM
- ED50 [11]: 0.00937 µM
- ED50 [12]: 0.041 µM
- ED50 [13]: 0.0112 µM
- ED50 [14]: 2.92 µM
- ED50 [15]: 0.0297 µM
- ED50 [16]: 0.00957 µM
- ED50 [17]: 0.877 µM
- ED50 [18]: 2.84 µM
- ED50 [19]: 5.86 µM
- ED50 [20]: 8.57 µM
- ED50 [21]: 0.00445 µM
- ED50 [22]: 3.51 µM
- ED50 [23]: 0.758 µM
- ED50 [24]: 14 µM
- ED50 [25]: 5.28 µM
- ED50 [26]: 0.0198 µM
- ED50 [27]: 3.64 µM
- ED50 [28]: 0.637 µM
- ED50 [29]: 3.25 µM
- ED50 [30]: 0.00217 µM
- ED50 [31]: 0.0247 µM
- ED50 [32]: 0.128 µM
- ED50 [33]: 0.809 µM
- ED50 [34]: 6.34 µM
- ED50 [35]: 0.0583 µM
- ED50 [36]: 0.174 µM
- ED50 [37]: 10.5 µM
- ED50 [38]: 7.62 µM
- ED50 [39]: 60 µM
- ED50 [40]: 1.67 µM
- ED50 [41]: 0.0116 µM
- ED50 [42]: 5.62 µM
- ED50 [43]: 4.09 µM
- ED50 [44]: 0.00621 µM
- ED50 [45]: 44.4 µM
- ED50 [46]: 2.22 µM
- ED50 [47]: 0.0527 µM

Structure (SMILES): Cc1ccc(C(=O)Nc2cccc(C(F)(F)F)c2)cc1Nc1nc(-c2cccnc2)nc2nn(C)cc12
- ED50 [1]: 6.16 µM
- ED50 [2]: 0.0289 µM
- ED50 [3]: 0.12 µM
- ED50 [4]: 0.073 µM
- ED50 [5]: 2.31 µM
- ED50 [6]: 10.3 µM
- ED50 [7]: 0.0647 µM
- ED50 [8]: 0.0676 µM
- ED50 [9]: 0.223 µM
- ED50 [10]: 16.5 µM
- ED50 [11]: 6850 µM
- ED50 [12]: 0.0286 µM
- ED50 [13]: 0.0794 µM
- ED50 [14]: 8.18 µM
- ED50 [15]: 0.0189 µM
- ED50 [16]: 0.00197 µM
- ED50 [17]: 0.0595 µM
- ED50 [18]: 0.0194 µM
- ED50 [19]: 13.2 µM
- ED50 [20]: 13.5 µM
- ED50 [21]: 0.342 µM
- ED50 [22]: 825 µM
- ED50 [23]: 1.77 µM
- ED50 [24]: 0.0543 µM
- ED50 [25]: 0.334 µM
- ED50 [26]: 0.0533 µM
- ED50 [27]: 120 µM
- ED50 [28]: 627 µM
- ED50 [29]: 1.55 µM
- ED50 [30]: 0.419 µM
- ED50 [31]: 12.5 µM
- ED50 [32]: 650 µM
- ED50 [33]: 7.34 µM
- ED50 [34]: 1.94 µM
- ED50 [35]: 0.0901 µM
- ED50 [36]: 4.34 µM
- ED50 [37]: 0.0476 µM
- ED50 [38]: 0.00497 µM
- ED50 [39]: 0.00683 µM
- ED50 [40]: 5.74 µM
- ED50 [41]: 1.46 µM
- ED50 [42]: 0.0113 µM
- ED50 [43]: 0.0188 µM
- ED50 [44]: 0.0346 µM
- ED50 [45]: 1.91 µM
- ED50 [46]: 2.66 µM
- ED50 [47]: 0.0363 µM
